Results on one compound are retold here after PMC9149975, “The diaryl-imidazopyridazine anti-plasmodial compound, MMV652103, exhibits anti-breast cancer activity” (EXCLI Journal, 2022).

Data set [1] relates to MCF7 cells. As to the kind of experiment: Cell cycle analysis by flow cytometry. Particulars: IC50, 24 and 48 h. The class given is cell-based, human. The protocol: Log-phase MCF7 cells were exposed to MMV652103 for 24 and 48 h and both adherent and floating cells were collected, processed as previously described and analyzed using a Becton Dickinson FACSCalibur flow cytometer (Becton Dickinson, New Jersey, USA) with a 488 nm coherent laser (Bleloch et al., 2019[8]). The data were acquired using CellQuest Pro version 5.2.1. software (Becton Dickinson) and the analyses were done using ModFit version 2.0. software (Verity Software House Inc, Maine, USA).
For orientation: A flow cytometer gives signals particle by particle.

Data set [2] deals with T1, PIK3CD/ PIK3R1 (Homo sapiens, UniProt O00329).
T1 construct: purchased Carna Biosciences Inc; Invitrogen Corporation
T1 sequence (O00329 whole entry): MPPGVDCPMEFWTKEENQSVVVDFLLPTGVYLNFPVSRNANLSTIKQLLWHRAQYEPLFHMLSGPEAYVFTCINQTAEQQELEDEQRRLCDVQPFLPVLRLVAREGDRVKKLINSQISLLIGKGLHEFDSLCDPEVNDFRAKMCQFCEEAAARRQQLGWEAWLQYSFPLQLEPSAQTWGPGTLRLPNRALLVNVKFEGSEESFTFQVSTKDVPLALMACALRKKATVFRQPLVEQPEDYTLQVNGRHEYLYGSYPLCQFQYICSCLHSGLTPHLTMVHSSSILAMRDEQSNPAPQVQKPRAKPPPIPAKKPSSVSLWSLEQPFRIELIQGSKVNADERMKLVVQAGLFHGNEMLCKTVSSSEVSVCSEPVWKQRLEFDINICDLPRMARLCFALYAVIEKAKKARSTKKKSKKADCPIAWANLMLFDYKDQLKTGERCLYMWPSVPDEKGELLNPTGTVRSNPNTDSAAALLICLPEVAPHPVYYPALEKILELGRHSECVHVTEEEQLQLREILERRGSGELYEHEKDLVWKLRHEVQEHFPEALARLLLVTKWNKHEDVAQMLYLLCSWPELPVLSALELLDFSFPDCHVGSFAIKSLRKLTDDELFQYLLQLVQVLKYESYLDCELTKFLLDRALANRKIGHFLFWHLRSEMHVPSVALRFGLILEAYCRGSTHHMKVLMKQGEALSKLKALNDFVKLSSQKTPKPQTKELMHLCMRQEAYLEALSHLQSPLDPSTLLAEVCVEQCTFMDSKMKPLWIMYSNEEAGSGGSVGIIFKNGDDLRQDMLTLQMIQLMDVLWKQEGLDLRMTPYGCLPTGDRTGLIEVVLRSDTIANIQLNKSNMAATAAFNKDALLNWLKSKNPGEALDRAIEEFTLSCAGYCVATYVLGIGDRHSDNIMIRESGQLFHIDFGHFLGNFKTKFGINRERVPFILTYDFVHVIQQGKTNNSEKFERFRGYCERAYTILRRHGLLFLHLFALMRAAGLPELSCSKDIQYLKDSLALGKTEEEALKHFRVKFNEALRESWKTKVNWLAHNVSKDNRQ
T1 sequence (P27986 whole entry partner): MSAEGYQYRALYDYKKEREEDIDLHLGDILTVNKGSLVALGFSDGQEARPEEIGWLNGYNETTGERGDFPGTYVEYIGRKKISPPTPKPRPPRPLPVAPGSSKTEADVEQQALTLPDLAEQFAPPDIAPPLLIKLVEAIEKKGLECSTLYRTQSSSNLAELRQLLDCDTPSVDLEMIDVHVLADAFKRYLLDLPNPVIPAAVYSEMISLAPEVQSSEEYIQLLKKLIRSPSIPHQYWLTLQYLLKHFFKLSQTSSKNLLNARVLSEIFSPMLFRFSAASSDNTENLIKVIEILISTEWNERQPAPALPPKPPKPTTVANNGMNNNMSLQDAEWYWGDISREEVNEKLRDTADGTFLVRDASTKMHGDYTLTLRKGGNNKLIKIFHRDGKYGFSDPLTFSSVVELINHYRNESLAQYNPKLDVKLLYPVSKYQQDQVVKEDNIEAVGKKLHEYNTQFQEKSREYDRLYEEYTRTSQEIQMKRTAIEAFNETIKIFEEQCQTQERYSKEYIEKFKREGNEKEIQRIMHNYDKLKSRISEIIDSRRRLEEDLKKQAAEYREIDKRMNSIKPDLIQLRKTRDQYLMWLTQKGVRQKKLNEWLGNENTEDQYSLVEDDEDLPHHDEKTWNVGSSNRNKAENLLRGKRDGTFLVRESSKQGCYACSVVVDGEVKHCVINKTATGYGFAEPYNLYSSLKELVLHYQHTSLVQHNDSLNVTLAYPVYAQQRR
As to the kind of experiment: ADP-Glo lipid kinase assay, PIK3CD/PIK3R1. The class given is biochemical. Particulars: 10 µM compound.

The subject of data set [3] is T47D cells. In words: Scratch motility assay, T47D. The data set is classed as cell-based, human. Particulars: IC50 and 2 x IC50; 3, 6, 9 h. The protocol:
(§1) Cells were grown to 100 % confluence in 12-well tissue culture plates and the following day a sterile 2 µl pipette tip was used to make a vertical scratch in the cell monolayer of each well and the cells treated with mitomycin C (M4287; Sigma Aldrich) at a final concentration of 10 μg/ml to inhibit proliferation. Cells were subsequently treated with MMV652103 or vehicle and imaged at 0, 3, 6 and 9 h post wound formation and ImageJ v1.50i software was used to calculate the area of the scratch (Schneider et al., 2012[73]). The total areas migrated was determined by subtracting the area for a specific time point from the area measured at 0 h.

Data set [4] concerns the target T2, PI4K2A (Homo sapiens, UniProt Q9BTU6).
T2 construct: purchased Carna Biosciences Inc; Invitrogen Corporation
As to the kind of experiment: ADP-Glo lipid kinase assay, PI4K2A. Particulars: 10 µM compound. The class given is biochemical. In general terms: ADP-Glo first removes unused ATP, then detects ADP through luciferase.

Data set [5] has as its system MCF7 cells. As to the kind of experiment: GSH-Glo Glutathione assay. The data set is classed as cell-based, human. Particulars: MCF7, 24 h; MMV652103 ½ IC50 and IC50, doxorubicin IC50 (9.84 nM). How it is done: The increase in ROS levels results in a decrease in the levels of antioxidants. To confirm the presence of intracellular ROS, the levels of the antioxidant, glutathione (GSH), was measured using the GSH-Glo™ Glutathione assay kit (V6911, Promega, Wisconsin, USA), according to the manufacturer's instructions. Briefly, cells (2500-4500 cells per well) were seeded in opaque 96 well plates. Cells were treated for 24 h with either vehicle or MMV652103. Thereafter, the cell culture medium was removed and 100 μl of 1X GSH-Glo™ Reagent (prepared using Luciferin-NT substrate and Glutathione S-Transferase each diluted 1:100 in GSH-Glo™ Reaction Buffer) was added to each well. The plate was then mixed briefly on a shaker and incubated for 10 min at RT. Thereafter, 100 μl reconstituted Luciferin Detection Reagent was added to each well. The plate was then incubated for 15 min RT in order to stabilize the luminescence signal. The plate was read using the GloMax® Explorer Multimode plate reader (Promega, Wisconsin, USA).

Data set [6] concerns MCF7 cells. As to the kind of experiment: Scratch motility assay, MCF7. The class given is cell-based, human. Particulars: IC50 and 2 x IC50; 3, 6, 9 h. The protocol: as §1
The subject of data set [7] is MCF7 cells. As to the kind of experiment: Clonogenic survival assay, MCF7. The data set is classed as cell-based, human. Particulars: IC50, 2 x IC50, 4 x IC50 for 24 h. How it is done:
(§2) Cells were pre-cultured and treated with the indicated concentrations of MMV652103 for 24 h, washed, collected and re-plated, in drug-free medium, at 1000-2000 cells per well in 35 mm dishes, in triplicate. After 10-21 days the surviving cells were fixed with 3:1 methanol: acetic acid and stained with 0.5 % crystal violet (Sigma-Aldrich, USA) in 100 % methanol. Quantification of colonies was performed using ImageJ 1.5J8 software (USA) (Schneider et al., 2012[73]). Number of colonies was determined for each drug concentration and expressed as a percentage of the vehicle treated control.

The test system of data set [8] is T47D cells. As to the kind of experiment: Clonogenic survival assay, T47D. The class given is cell-based, human. Particulars: IC50, 2 x IC50, 4 x IC50 for 24 h. How it is done: as §2
A short description of data set [9]: Solubility in DMSO at 10 mM. The data set is classed as physicochemical. Particulars: final concentration 10 mM.
Data set [10] deals with T3, PI4KB (Homo sapiens, UniProt Q9UBF8).
T3 construct: purchased Carna Biosciences Inc; Invitrogen Corporation
T3 sequence (Q9UBF8 whole entry): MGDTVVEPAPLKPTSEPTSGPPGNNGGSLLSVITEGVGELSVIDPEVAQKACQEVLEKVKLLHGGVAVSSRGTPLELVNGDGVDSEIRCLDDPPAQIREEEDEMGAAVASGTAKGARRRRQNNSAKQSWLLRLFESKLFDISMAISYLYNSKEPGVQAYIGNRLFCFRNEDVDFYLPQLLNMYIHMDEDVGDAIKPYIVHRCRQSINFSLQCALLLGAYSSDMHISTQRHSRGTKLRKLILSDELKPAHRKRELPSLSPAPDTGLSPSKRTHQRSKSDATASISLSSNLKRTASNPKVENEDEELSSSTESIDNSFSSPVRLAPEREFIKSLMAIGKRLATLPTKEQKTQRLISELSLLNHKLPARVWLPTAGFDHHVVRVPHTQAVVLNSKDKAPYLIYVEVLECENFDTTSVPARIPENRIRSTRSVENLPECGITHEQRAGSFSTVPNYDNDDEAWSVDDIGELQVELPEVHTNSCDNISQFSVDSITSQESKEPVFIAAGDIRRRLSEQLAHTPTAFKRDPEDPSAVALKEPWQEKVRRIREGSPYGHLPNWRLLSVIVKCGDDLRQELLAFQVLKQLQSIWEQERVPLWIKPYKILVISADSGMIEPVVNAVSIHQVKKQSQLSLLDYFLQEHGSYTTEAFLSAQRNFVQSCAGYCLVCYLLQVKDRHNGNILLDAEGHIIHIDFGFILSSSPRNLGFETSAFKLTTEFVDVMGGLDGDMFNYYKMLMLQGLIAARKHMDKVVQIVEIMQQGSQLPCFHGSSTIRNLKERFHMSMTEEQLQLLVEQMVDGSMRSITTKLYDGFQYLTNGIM
As to the kind of experiment: ADP-Glo lipid kinase assay, PI4KB. The data set is classed as biochemical. How it is done: A non-radiometric kinase assay (ADP-Glo™ Assay, Promega, Madison, Wi, USA) was used for measuring the kinase activity of the 2 lipid kinases, phosphatidylinositol 4-kinase beta (encoded by the PI4KB gene) and phosphatidylinositol-4-Phosphate 3-Kinase Catalytic Subunit Type 2 Gamma (encoded by the PIK3C2G gene). All kinase assays were performed in 96-well half-area microtiter plates from Greiner Bio-One (Frickenhausen, Germany) in 25 µl reaction volumes. […] In addition, the assay for PI4KB contained 3 mM MnCl2 and the assay for PIK3C2G contained 3 mM MgCl2. Kinases from external vendors (Carna Biosciences Inc.; Invitrogen Corporation; Millipore Corporation) were expressed, purified and quality-controlled by virtue of the vendors readings. The reaction cocktails were incubated at 30 °C for 60 min. The reaction was stopped with 25 µl ADP-Glo reagent per well. Plates were incubated for 40 min at RT, followed by the addition of 50 µl kinase detection reagent per well and incubation for 60 min at RT. Signal was determined with a microplate luminescence reader (Victor, Perkin Elmer). […]
For each kinase, the median value of the counts per second (cps) of three wells with complete reaction cocktails, but without kinase, was defined as "low control" (n=3). […] The residual activity (in %) for each well of each row of a particular plate was calculated by using the following formula: […]

Structures are written as SMILES.

T2 sequence (Q9BTU6 whole entry): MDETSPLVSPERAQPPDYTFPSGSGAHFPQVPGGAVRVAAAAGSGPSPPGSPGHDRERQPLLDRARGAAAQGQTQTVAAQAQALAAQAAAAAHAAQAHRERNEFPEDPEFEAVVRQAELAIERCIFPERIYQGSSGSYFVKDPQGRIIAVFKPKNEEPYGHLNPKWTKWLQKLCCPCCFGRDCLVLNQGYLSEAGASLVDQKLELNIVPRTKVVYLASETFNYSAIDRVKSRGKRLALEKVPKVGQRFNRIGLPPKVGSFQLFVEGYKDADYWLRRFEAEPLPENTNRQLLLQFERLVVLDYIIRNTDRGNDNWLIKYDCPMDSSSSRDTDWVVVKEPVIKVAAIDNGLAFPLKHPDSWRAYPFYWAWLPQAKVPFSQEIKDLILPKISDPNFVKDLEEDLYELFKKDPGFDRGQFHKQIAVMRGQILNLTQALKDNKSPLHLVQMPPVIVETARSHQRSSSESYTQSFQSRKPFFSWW

As to `CS(=O)(=O)c1ccc(-c2cnc3ccc(-c4cccc(S(C)(=O)=O)c4)nn23)cc1` [MMV652103], the “effect on MCF7 cell cycle progression” value in [1] was “induced sub-G1 peaks and arrested cells in G1”. The remaining activity at 10 µM turned out to be 3% in data set [2], 42% in [4] and 23% in data set [10] (10 µM compound). In addition, the T47D cell migration entry in [3] is “significant reduction”. The “levels of GSH” value in data set [5] is on record as “significant decrease”. The MCF7 cell migration entry in [6] is “significant reduction”. Further, the “number of MCF7 cell colonies” value in data set [7] is recorded as “dose-dependent reduction”. Also, in data set [8], the “number of T47D cell colonies” value is “dose-dependent reduction”. For the same compound, the entries for the “Solubility (DMSO)” value in data set [9] and in data set [9] (listed as 652103) were “soluble in DMSO” and “Successful”, respectively. Also, the IC50 in data set [10] (ADP-Glo) came to 1700 nM.

A word on the remaining activity: it is the share of the control activity or signal that is left under treatment. The low end stands for little activity left, the high end for much activity left. For orientation: IC50 means the concentration that inhibits the measured activity by half. Low values mean higher potency, high ones lower potency.
